In ChEMBL document CHEMBL1221247, “Oxidative stimuli-responsive nanoprodrug of camptothecin kills glioblastoma cells” (2010) one finds Activity and CC50 data, which are given here for two compounds.

Experiment [1] deals with U-87MG ATCC. Description: Cytotoxicity against human U87MG cells at 250 nM after 6 days. It counts as functional, cell-based.
The nature of experiment [2]: Cytotoxicity against human U87MG cells after 6 days. In kind it is functional, U-87MG ATCC. The following applies: U-87 MG, 144 h, read-out: LD50 (the source's name).

The source made the active and inactive calls. The calls are words filed in the database; no cut-off is given here.

As to `CC[C@@]1(OC(=O)OCCOCCOCCOCCOC(=O)CCCC[C@@H]2CCSS2)C(=O)OCc2c1cc1n(c2=O)Cc2cc3ccccc3nc2-1`, in experiment [1], the outcome was Active. Moreover, the CC50 in experiment [2] is 20 nM.

`CC[C@@]1(O)C(=O)OCc2c1cc1n(c2=O)Cc2cc3ccccc3nc2-1` [CAMPTOTHECIN]: the result in experiment [1] was Active. The CC50 in experiment [2] was 20 nM.
